Assays:
Test in all cases: cells
BE-13 = type: functional, cell-based, Homo sapiens; conditions: Homo sapiens, BE-13;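 further: growth inhibition of human BE-13 cells, measured with a cell viability assay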
Description: SANGER: Inhibition of human BE-13 cell growth in a cell viability assay.

D-502MG = type: functional, cell-based, Homo sapiens; conditions: Homo sapiens, D-502MG
Description: SANGER: Inhibition of human D-502MG cell growth in a cell viability assay.

J-RT3-T3-5 = type: functional, cell-based, Homo sapiens; conditions: Homo sapiens, J-RT3-T3-5;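 further: cell viability assay measuring growth inhibition of human J-RT3-T3-5 cells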
Description: SANGER: Inhibition of human J-RT3-T3-5 cell growth in a cell viability assay.

SW872 = type: functional, cell-based, Homo sapiens; conditions: Homo sapiens, SW872;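 further: growth inhibition of SW872 cells, read out by a viability assay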
Description: SANGER: Inhibition of human SW872 cell growth in a cell viability assay.

HAL-01 = type: functional, cell-based, Homo sapiens; conditions: Homo sapiens, HAL-01;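 further: growth inhibition of human HAL-01 cells, read out with a cell viability assay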
Description: SANGER: Inhibition of human HAL-01 cell growth in a cell viability assay.

HT = type: functional, cell-based, Homo sapiens; conditions: Homo sapiens, HT
Description: SANGER: Inhibition of human HT cell growth in a cell viability assay.

NCI-H1395 = type: functional, cell-based, Homo sapiens; conditions: Homo sapiens, NCI-H1395;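 further: cell viability assay read-out quantifying reduced proliferation of human NCI-H1395 cells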
Description: SANGER: Inhibition of human NCI-H1395 cell growth in a cell viability assay.

KU812 cell line = type: functional, cell-based, Homo sapiens; conditions: Homo sapiens, KU812;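 further: growth inhibition of KU812 cells, read out with a cell viability assay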
Description: SANGER: Inhibition of human KU812 cell growth in a cell viability assay.

DB = type: functional, cell-based, Homo sapiens; conditions: Homo sapiens, DB
Description: SANGER: Inhibition of human DB cell growth in a cell viability assay.

MEG-01 = type: functional, cell-based, Homo sapiens; conditions: Homo sapiens, MEG-01;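 further: growth inhibition of MEG-01 cells, read out by a cell viability assay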
Description: SANGER: Inhibition of human MEG-01 cell growth in a cell viability assay.

NKM-1 = type: functional, cell-based, Homo sapiens; conditions: Homo sapiens, NKM-1;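 further: growth inhibition of NKM-1 cells, read out with a cell viability assay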
Description: SANGER: Inhibition of human NKM-1 cell growth in a cell viability assay.

MFM-223 = type: functional, cell-based, Homo sapiens; conditions: Homo sapiens, MFM-223
Description: SANGER: Inhibition of human MFM-223 cell growth in a cell viability assay.

COLO-829 = type: functional, cell-based, Homo sapiens; conditions: Homo sapiens, COLO-829
Description: SANGER: Inhibition of human COLO-829 cell growth in a cell viability assay.

GI-1 = type: functional, cell-based, Homo sapiens; conditions: Homo sapiens, GI-1;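 further: growth inhibition of human GI-1 cells, measured with a cell viability readout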
Description: SANGER: Inhibition of human GI-1 cell growth in a cell viability assay.

A704 = type: functional, cell-based; conditions: Homo sapiens;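 further: growth inhibition of human A704 cells, read out with a cell viability assay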
Description: SANGER: Inhibition of human A704 cell growth in a cell viability assay.

OMC-1 = type: functional, cell-based, Homo sapiens; conditions: Homo sapiens, OMC-1;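 further: growth inhibition of the OMC-1 cell line, measured by a cell viability assay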
Description: SANGER: Inhibition of human OMC-1 cell growth in a cell viability assay.

EW-13 = type: functional, cell-based, Homo sapiens; conditions: Homo sapiens, EW-13; read-out: IC50;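 further: growth inhibition of EW-13 cells, read out with a cell viability assay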
Description: SANGER: Inhibition of human EW-13 cell growth in a cell viability assay.

MV4-11 = type: functional, cell-based, Homo sapiens, MV-4-11; conditions: Homo sapiens, MV4-11;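 further: cell viability readout measuring growth inhibition of human MV-4-11 cells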
Description: SANGER: Inhibition of human MV-4-11 cell growth in a cell viability assay.

DMS-114 = type: functional, cell-based, Homo sapiens; conditions: Homo sapiens, DMS-114
BT-474 = type: functional, cell-based, Homo sapiens; conditions: Homo sapiens, BT-474
Description: SANGER: Inhibition of human BT-474 cell growth in a cell viability assay.

ML-2 = type: functional, cell-based, Homo sapiens; conditions: Homo sapiens, ML-2;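 further: growth inhibition of ML-2 cells, measured with a cell viability readout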
Description: SANGER: Inhibition of human ML-2 cell growth in a cell viability assay.

RCC10RGB = type: functional, cell-based, Homo sapiens; conditions: Homo sapiens, RCC10RGB;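 further: growth inhibition of human RCC10RGB cells, read out by a cell viability assay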
Description: SANGER: Inhibition of human RCC10RGB cell growth in a cell viability assay.

IST-SL1 = type: functional, cell-based, Homo sapiens; conditions: Homo sapiens, IST-SL1;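 further: growth inhibition of human IST-SL1 cells, read out with a cell viability assay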
Description: SANGER: Inhibition of human IST-SL1 cell growth in a cell viability assay.

U-87 MG = type: functional, cell-based, Homo sapiens, U-87MG ATCC; conditions: Homo sapiens, U-87 MG;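 further: growth inhibition of the cells measured with a viability assay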
Description: SANGER: Inhibition of human U-87-MG cell growth in a cell viability assay.

KE-37 = type: functional, cell-based, Homo sapiens; conditions: Homo sapiens, KE-37;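 further: growth inhibition of KE-37 cells, read out with a cell viability assay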
Description: SANGER: Inhibition of human KE-37 cell growth in a cell viability assay.

JAR = type: functional, cell-based, Homo sapiens; conditions: Homo sapiens, JAR;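 further: growth inhibition of human JAR cells determined with a cell viability assay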
Description: SANGER: Inhibition of human JAR cell growth in a cell viability assay.

LAN-6 = type: functional, cell-based, Homo sapiens; conditions: Homo sapiens, LAN-6;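 further: growth inhibition of LAN-6 cells, determined with a cell viability assay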
Description: SANGER: Inhibition of human LAN-6 cell growth in a cell viability assay.

SK-NEP-1 = type: functional, cell-based, Homo sapiens; conditions: Homo sapiens, SK-NEP-1;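 further: growth inhibition of human SK-NEP-1 cells, read out by a cell viability assay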
Description: SANGER: Inhibition of human SK-NEP-1 cell growth in a cell viability assay.

KP-N-YS = type: functional, cell-based, Homo sapiens; conditions: Homo sapiens, KP-N-YS;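 further: cell viability assay measuring inhibition of cell line growth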
Description: SANGER: Inhibition of human KP-N-YS cell growth in a cell viability assay.

no-11 = type: functional, cell-based, Homo sapiens; conditions: Homo sapiens;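 further: growth inhibition of human NO-11 cells, read out with a cell viability assay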
Description: SANGER: Inhibition of human no-11 cell growth in a cell viability assay.

NCI-H720 = type: functional, cell-based, Homo sapiens; conditions: Homo sapiens, NCI-H720;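 further: growth inhibition of human NCI-H720 cells determined by a cell viability assay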
Description: SANGER: Inhibition of human NCI-H720 cell growth in a cell viability assay.

ETK-1 = type: functional, cell-based, Homo sapiens; conditions: Homo sapiens, ETK-1;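 further: growth inhibition of human ETK-1 cells, read out with a cell viability assay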
Description: SANGER: Inhibition of human ETK-1 cell growth in a cell viability assay.

DJM-1 = type: functional, cell-based, Homo sapiens; conditions: Homo sapiens, DJM-1;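 further: growth inhibition of human DJM-1 cells, read out by a cell viability assay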
Description: SANGER: Inhibition of human DJM-1 cell growth in a cell viability assay.

MZ2-MEL = type: functional, cell-based, Homo sapiens; conditions: Homo sapiens, MZ2-MEL;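 further: growth inhibition of MZ2-MEL cells read out with a cell viability assay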
Description: SANGER: Inhibition of human MZ2-MEL cell growth in a cell viability assay.

SNU1 = type: functional, cell-based, Homo sapiens; conditions: Homo sapiens, SNU1;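 further: growth inhibition of human NCI-SNU-1 cells, measured with a cell viability assay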
Description: SANGER: Inhibition of human NCI-SNU-1 cell growth in a cell viability assay.

OCI-AML2 = type: functional, cell-based, Homo sapiens; conditions: Homo sapiens, OCI-AML2;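 further: growth inhibition of OCI-AML2 cells, read out with a cell viability assay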
Description: SANGER: Inhibition of human OCI-AML2 cell growth in a cell viability assay.

SK-UT-1 = type: functional, cell-based, Homo sapiens; conditions: Homo sapiens, SK-UT-1;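 further: growth inhibition of SK-UT-1 cells, measured by a cell viability assay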
Description: SANGER: Inhibition of human SK-UT-1 cell growth in a cell viability assay.

BB65-RCC = type: functional, cell-based, Homo sapiens; conditions: Homo sapiens, BB65-RCC;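 further: growth inhibition of the cell line, measured with a cell viability assay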
Description: SANGER: Inhibition of human BB65-RCC cell growth in a cell viability assay.

BV-173 = type: functional, cell-based, Homo sapiens; conditions: Homo sapiens, BV-173
Description: SANGER: Inhibition of human BV-173 cell growth in a cell viability assay.

MOLT-16 = type: functional, cell-based, Homo sapiens; conditions: Homo sapiens, MOLT-16;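 further: growth inhibition of human MOLT-16 cells, read out with a cell viability assay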
Description: SANGER: Inhibition of human MOLT-16 cell growth in a cell viability assay.

LOX IMVI = type: functional, cell-based, Homo sapiens; conditions: Homo sapiens, LOX IMVI
Description: SANGER: Inhibition of human LOXIMVI cell growth in a cell viability assay.

COR-L88 = type: functional, cell-based, Homo sapiens; conditions: Homo sapiens, COR-L88;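 further: growth inhibition of COR-L88 cells, read out with a cell viability assay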
Description: SANGER: Inhibition of human COR-L88 cell growth in a cell viability assay.

LB771-HNC = type: functional, cell-based; conditions: Homo sapiens;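 further: growth inhibition of LB771-HNC human cells, read out with a cell viability assay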
Description: SANGER: Inhibition of human LB771-HNC cell growth in a cell viability assay.

SCC-15 = type: functional, cell-based, Homo sapiens; conditions: Homo sapiens, SCC-15;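 further: growth inhibition of SCC-15 cells, read out with a cell viability assay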
Description: SANGER: Inhibition of human SCC-15 cell growth in a cell viability assay.

EW-3 = type: functional, cell-based, Homo sapiens; conditions: Homo sapiens, EW-3;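 further: cell viability assay read-out, IC50 reflects inhibition of growth of the EW-3 cells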
Description: SANGER: Inhibition of human EW-3 cell growth in a cell viability assay.

L-363 = type: functional, cell-based, Homo sapiens; conditions: Homo sapiens, L-363
Description: SANGER: Inhibition of human L-363 cell growth in a cell viability assay.

TE-1 = type: functional, cell-based, Homo sapiens; conditions: Homo sapiens, TE-1;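 further: growth inhibition of the human TE-1 cell line, read out with a cell viability assay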
Description: SANGER: Inhibition of human TE-1 cell growth in a cell viability assay.

TE-6 = type: functional, cell-based, Homo sapiens; conditions: Homo sapiens, TE-6;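 further: growth inhibition of TE-6 cells, read out with a cell viability assay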
Description: SANGER: Inhibition of human TE-6 cell growth in a cell viability assay.

HCC2218 = type: functional, cell-based, Homo sapiens; conditions: Homo sapiens, HCC2218;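 further: cell viability assay read-out, with IC50 given as the concentration that inhibits growth of the cell line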
Description: SANGER: Inhibition of human HCC2218 cell growth in a cell viability assay.

C/C(=C\c1csc(C)n1)[C@@H]1C[C@@H]2O[C@]2(C)CCC[C@H](C)[C@H](O)[C@@H](C)C(=O)C(C)(C)[C@@H](O)CC(=O)O1 [PATUPILONE]
IC50 (BE-13): 0.0073 µM
IC50 (D-502MG): > 0.032 µM
IC50 (J-RT3-T3-5): 0.0135 µM
IC50 (SW872): 0.000774 µM
IC50 (HAL-01): 0.00502 µM
IC50 (HT): 0.0205 µM
IC50 (NCI-H1395): > 0.032 µM
IC50 (KU812 cell line): 0.00345 µM
IC50 (DB): 0.00711 µM
IC50 (MEG-01): 0.00153 µM
IC50 (NKM-1): 0.0021 µM
IC50 (MFM-223): > 0.032 µM
IC50 (COLO-829): > 0.032 µM
IC50 (GI-1): 0.00243 µM
IC50 (A704): 0.0146 µM
IC50 (OMC-1): > 0.032 µM
IC50 (EW-13): 0.000903 µM
IC50 (MV4-11): 0.0017 µM
IC50 (DMS-114): > 0.032 µM
IC50 (BT-474): 0.0132 µM
IC50 (ML-2): 0.00246 µM
IC50 (RCC10RGB): 0.0197 µM
IC50 (IST-SL1): 0.00637 µM
IC50 (U-87 MG): 0.0218 µM
IC50 (KE-37): 0.00191 µM
IC50 (JAR): > 0.032 µM
IC50 (LAN-6): > 0.032 µM
IC50 (SK-NEP-1): 0.01 µM
IC50 (KP-N-YS): 0.00393 µM
IC50 (no-11): > 0.032 µM
IC50 (NCI-H720): > 0.032 µM
IC50 (ETK-1): 0.000979 µM
IC50 (DJM-1): 0.00313 µM
IC50 (MZ2-MEL): 0.00215 µM
IC50 (SNU1): > 0.032 µM
IC50 (OCI-AML2): 0.00307 µM
IC50 (SK-UT-1): 0.000892 µM
IC50 (BB65-RCC): 0.000631 µM
IC50 (BV-173): > 0.032 µM
IC50 (MOLT-16): 0.00341 µM
IC50 (LOX IMVI): > 0.032 µM
IC50 (COR-L88): > 0.032 µM
IC50 (LB771-HNC): 0.00846 µM
IC50 (SCC-15): 0.00598 µM
IC50 (EW-3): > 0.032 µM
IC50 (L-363): 0.00588 µM
IC50 (TE-1): 0.00202 µM
IC50 (TE-6): 0.023 µM
IC50 (HCC2218): 0.0308 µM

Cc1ccc(C(=O)Nc2ccc(CN3CCN(C)CC3)c(C(F)(F)F)c2)cc1C#Cc1cnc2cccnn12 [PONATINIB]
IC50 (BE-13): 0.00259 µM
IC50 (D-502MG): > 0.512 µM
IC50 (J-RT3-T3-5): > 0.512 µM
IC50 (SW872): > 0.512 µM
IC50 (HAL-01): > 0.512 µM
IC50 (HT): > 0.512 µM
IC50 (NCI-H1395): > 0.512 µM
IC50 (KU812 cell line): 0.0285 µM
IC50 (DB): > 0.512 µM
IC50 (MEG-01): < 0.002 µM
IC50 (NKM-1): 0.00655 µM
IC50 (MFM-223): > 0.512 µM
IC50 (COLO-829): > 0.512 µM
IC50 (GI-1): > 0.512 µM
IC50 (A704): > 0.512 µM
IC50 (OMC-1): > 0.512 µM
IC50 (EW-13): > 0.512 µM
IC50 (MV4-11): < 0.002 µM
IC50 (DMS-114): > 0.512 µM
IC50 (BT-474): > 0.512 µM
IC50 (ML-2): > 0.512 µM
IC50 (RCC10RGB): > 0.512 µM
IC50 (IST-SL1): > 0.512 µM
IC50 (U-87 MG): > 0.512 µM
IC50 (KE-37): > 0.512 µM
IC50 (JAR): > 0.512 µM
IC50 (LAN-6): > 0.512 µM
IC50 (SK-NEP-1): > 0.512 µM
IC50 (KP-N-YS): > 0.512 µM
IC50 (no-11): > 0.512 µM
IC50 (NCI-H720): > 0.512 µM
IC50 (ETK-1): > 0.512 µM
IC50 (DJM-1): > 0.512 µM
IC50 (MZ2-MEL): > 0.512 µM
IC50 (SNU1): > 0.512 µM
IC50 (OCI-AML2): > 0.512 µM
IC50 (SK-UT-1): > 0.512 µM
IC50 (BB65-RCC): > 0.512 µM
IC50 (BV-173): > 0.512 µM
IC50 (MOLT-16): > 0.512 µM
IC50 (LOX IMVI): > 0.512 µM
IC50 (COR-L88): > 0.512 µM
IC50 (LB771-HNC): > 0.512 µM
IC50 (SCC-15): > 0.512 µM
IC50 (EW-3): > 0.512 µM
IC50 (L-363): > 0.512 µM
IC50 (TE-1): > 0.512 µM
IC50 (TE-6): > 0.512 µM
IC50 (HCC2218): > 0.512 µM

COc1cc(N2CCC(N3CCN(C)CC3)CC2)ccc1Nc1ncc(Cl)c(Nc2ccccc2S(=O)(=O)C(C)C)n1 [TAE-684]
IC50 (BE-13): > 2 µM
IC50 (D-502MG): > 2 µM
IC50 (J-RT3-T3-5): > 2 µM
IC50 (SW872): 0.567 µM
IC50 (HAL-01): 1.15 µM
IC50 (HT): > 2 µM
IC50 (NCI-H1395): > 2 µM
IC50 (KU812 cell line): > 2 µM
IC50 (DB): > 2 µM
IC50 (MEG-01): > 2 µM
IC50 (NKM-1): 1.69 µM
IC50 (MFM-223): > 2 µM
IC50 (COLO-829): > 2 µM
IC50 (GI-1): 1.1 µM
IC50 (A704): 1.33 µM
IC50 (OMC-1): > 2 µM
IC50 (EW-13): > 2 µM
IC50 (MV4-11): 0.394 µM
IC50 (DMS-114): > 2 µM
IC50 (BT-474): > 2 µM
IC50 (ML-2): 0.49 µM
IC50 (RCC10RGB): > 2 µM
IC50 (IST-SL1): > 2 µM
IC50 (U-87 MG): > 2 µM
IC50 (KE-37): > 2 µM
IC50 (JAR): > 2 µM
IC50 (LAN-6): 0.174 µM
IC50 (SK-NEP-1): 0.235 µM
IC50 (KP-N-YS): > 2 µM
IC50 (no-11): > 2 µM
IC50 (NCI-H720): 1.36 µM
IC50 (ETK-1): 1.34 µM
IC50 (DJM-1): > 2 µM
IC50 (MZ2-MEL): > 2 µM
IC50 (SNU1): > 2 µM
IC50 (OCI-AML2): 0.483 µM
IC50 (SK-UT-1): > 2 µM
IC50 (BB65-RCC): > 2 µM
IC50 (BV-173): > 2 µM
IC50 (MOLT-16): 0.876 µM
IC50 (LOX IMVI): > 2 µM
IC50 (COR-L88): > 2 µM
IC50 (LB771-HNC): 0.898 µM
IC50 (SCC-15): > 2 µM
IC50 (EW-3): > 2 µM
IC50 (L-363): 0.824 µM
IC50 (TE-1): 0.691 µM
IC50 (TE-6): > 2 µM
IC50 (HCC2218): > 2 µM
